Where two headings read alike, the source gives them in different places.

This assay addresses T1, full-length SARM1 (FL-SARM1) (Homo sapiens, UniProt Q6SZW1).
T1 sequence (Q6SZW1 28-724): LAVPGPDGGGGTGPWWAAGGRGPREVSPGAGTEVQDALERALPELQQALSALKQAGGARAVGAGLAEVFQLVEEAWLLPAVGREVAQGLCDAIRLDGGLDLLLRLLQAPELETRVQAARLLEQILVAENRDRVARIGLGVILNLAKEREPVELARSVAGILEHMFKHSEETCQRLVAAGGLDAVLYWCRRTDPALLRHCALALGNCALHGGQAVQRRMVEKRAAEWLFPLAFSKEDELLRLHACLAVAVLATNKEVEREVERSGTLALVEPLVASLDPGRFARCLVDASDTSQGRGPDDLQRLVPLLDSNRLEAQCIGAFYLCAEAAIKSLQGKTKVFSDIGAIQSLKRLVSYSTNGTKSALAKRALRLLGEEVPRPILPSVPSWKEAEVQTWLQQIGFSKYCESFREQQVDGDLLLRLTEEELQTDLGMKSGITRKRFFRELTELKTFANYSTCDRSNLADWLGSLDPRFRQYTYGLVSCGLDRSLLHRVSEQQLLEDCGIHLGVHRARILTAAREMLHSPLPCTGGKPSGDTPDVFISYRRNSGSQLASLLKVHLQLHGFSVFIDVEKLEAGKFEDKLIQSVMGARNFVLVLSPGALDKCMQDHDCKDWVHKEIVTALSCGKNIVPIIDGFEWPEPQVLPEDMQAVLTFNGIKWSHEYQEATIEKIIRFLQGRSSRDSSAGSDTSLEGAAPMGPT
The assay is described as follows: FL-SARM1 cellular lysate assay (NAD/NADH-Glo detection of remaining NAD+, NMN-activated).

The mark [1] stands for this setting: Activity (IC50 class), 11 point curve.
[2] abbreviates: Activity (μM) (IC50), 11 point curve.
The mark [3] stands for this setting: read-out: Activity (IC50 class), 11 point curve.

By IC50 is commonly meant the concentration needed to halve the response being measured. Regarding `Cc1ccc(NC(=O)C2CCC3(CC3)CN2c2ccccn2)cc1-c1ncc(F)cn1` (racemic) [Example 314], the IC50 was 1 to 10 µM under setting [1] and 1.2 µM under setting [2].
In the case of `Cc1ccc(NC(=O)N2CCCC2C2CC2)cc1-c1ccccn1` (racemic) [Example 92, 2-cyclopropyl-N-(4-methyl-3-pyridin-2-ylphenyl)pyrrolidine-1-carboxamide], the half-maximal inhibitory concentration (IC50) was 1 to 10 µM under setting [1] and 2.3 µM under setting [2].
The matching figures for `Cc1cc(F)c(NC(=O)[C@@H]2CC2(F)F)cc1-c1ccccn1` (stereo in doubt) [Example 143, 2,2-difluoro-N-(2-fluoro-4-methyl-5-pyridin-2-ylphenyl)cyclopropane-1-carboxamide]: 1 to 10 µM and 1.8 µM.
For `Cc1ccc(NC(=O)[C@@H]2C[C@@H]2c2ccccn2)cc1-c1cccnn1` [Example 291, (1R,2S)-N-(4-methyl-3-pyridazin-3-ylphenyl)-2-pyridin-2-ylcyclopropane-1-carboxamide] the same measures were greater than 10 µM and 16 µM.
As to `COC(C)[C@@]12CC(C[C@@H](C)C1)N2C(=O)Nc1ccc(C(F)(F)F)c(-c2nccnn2)c1` (single isomer, unassigned) [Example 209, cis-N-(3-(1,2,4-triazin-3-yl)-4-(trifluoromethyl)phenyl)-1-(1-methoxyethyl)-3-methyl-6-azabicyclo[3.1.1]heptane-6-carboxamide], the IC50 reads like this: under setting [2], 0.5 µM; under setting [3], 0.0001 to 1 µM.
As to `Cc1ccc(NC(=O)[C@@H]2CC2(F)F)cc1-c1cccc(C#N)n1` [Example 159, (1S)-N-[3-(6-cyanopyridin-2-yl)-4-methylphenyl]-2,2-difluorocyclopropane-1-carboxamide], the IC50 runs as follows: under setting [1], 1 to 10 µM; under setting [2], 9.8 µM.
For the compound `Cc1ccc(NC(=O)N2C3CCCC2C3)cc1-c1ncc(Cl)cn1` [Example 252, N-[3-(5-chloropyrimidin-2-yl)-4-methylphenyl]-6-azabicyclo[3.1.1]heptane-6-carboxamide], the IC50 was 0.5 µM under setting [2] and 0.0001 to 1 µM under setting [3].
Take `O=C(Nc1ccc(C(F)(F)F)c(-c2ncc(F)cn2)c1)N1CCCC2CC2C1` (centres unmarked) [Example 304, N-(3-(5-fluoropyrimidin-2-yl)-4-(trifluoromethyl)phenyl)-3-azabicyclo[5.1.0]octane-3-carboxamide]: the IC50 was 1 to 10 µM under setting [1] and 2.4 µM under setting [2].
The matching figures for `Cc1ccc(NC(=O)[C@H]2C[C@H]3C[C@H]3N2c2cncnn2)cc1-c1ncc(F)cn1` [Example 173, (1R,3R,5R)—N-(3-(5-fluoropyrimidin-2-yl)-4-methylphenyl)-2-(1,2,4-triazin-6-yl)-2-azabicyclo[3.1.0]hexane-3-carboxamide]: 1 to 10 µM and 4.2 µM.
For the compound `Cc1ccc(NC(=O)N2C3C[C@H](C)C[C@@H]2C3)cc1-c1cc(F)cnn1` [Example 220, cis-N-[3-(5-fluoropyridazin-3-yl)-4-methylphenyl]-3-methyl-6-azabicyclo[3.1.1]heptane-6-carboxamide], the IC50 under setting [2] is 0.1 µM and the IC50 under setting [3] is 0.0001 to 1 µM.
Turning to `Cc1c(Br)cc(NC(=O)N2C3CCCC2C3)cc1-c1ccccn1` [Example 78, N-(3-bromo-4-methyl-5-(pyridin-2-yl)phenyl)-6-azabicyclo[3.1.1]heptane-6-carboxamide], the IC50 under setting [2] was found to be 0.7 µM and the IC50 under setting [3] lay within 0.0001 to 1 µM.
Take `Cc1ccc(NC(=O)[C@@H]2C[C@@H]3[C@H](C2)C3(F)F)cc1-c1cccnn1` [Example 176, trans-6,6-difluoro-N-(4-methyl-3-(pyridazin-3-yl)phenyl)bicyclo[3.1.0]hexane-3-carboxamide]: the IC50 reads like this: under setting [1], greater than 10 µM; under setting [2], 16 µM.
`Cc1ccc(NC(=O)N2C3C[C@H](OC(F)F)C[C@H]2C3)cc1-c1ccccn1` [Example 29, trans-3-(difluoromethoxy)-N-(4-methyl-3-(pyridin-2-yl)phenyl)-6-azabicyclo[3.1.1]heptane-6-carboxamide]: 0.06 µM corresponded to half-maximal inhibition under setting [2] (IC50) and the IC50 under setting [3] fell in the range of 0.0001 to 1 µM.
The matching figures for `Cc1ccc(NC(=O)C2C3CCC2CC3)cc1-c1ccccn1` (centres unmarked) [Example 73, N-(4-methyl-3-(pyridin-2-yl)phenyl)bicyclo[2.2.1]heptane-7-carboxamide]: 0.09 µM and 0.0001 to 1 µM.
Turning to `COc1cnnc(-c2cc(NC(=O)N3C4CCCC3C4)c(F)cc2C)c1` [Example 249, N-[2-fluoro-5-(5-methoxypyridazin-3-yl)-4-methylphenyl]-6-azabicyclo[3.1.1]heptane-6-carboxamide], the IC50 runs as follows: under setting [2], 0.9 µM; under setting [3], 0.0001 to 1 µM.
In the case of `Cc1ccc(NC(=O)C2CC(C(F)(F)F)C2)cc1-c1ccccn1` (mixture of isomers) [Example 130, N-(4-methyl-3-pyridin-2-ylphenyl)-3-(trifluoromethyl)cyclobutane-1-carboxamide], the IC50 by setting is: under setting [1], 1 to 10 µM; under setting [2], 2.6 µM.
The matching figures for `CSc1ncc(N2[C@@H](C(=O)Nc3ccc(C)c(-c4ncc(F)cn4)c3)C[C@H]3C[C@H]32)nn1` [Example 172, (1R,3R,5R)—N-(3-(5-fluoropyrimidin-2-yl)-4-methylphenyl)-2-(3-(methylthio)-1,2,4-triazin-6-yl)-2-azabicyclo[3.1.0]hexane-3-carboxamide]: 1 to 10 µM and 6.2 µM.
As for `Cc1ccc(NC(=O)C2CC3CC[C@H]2C3)cc1-c1ccccn1` (single isomer, unassigned) [Example 137, trans-N-(4-methyl-3-pyridin-2-ylphenyl)bicyclo[2.2.1]heptane-2-carboxamide], the IC50 is 0.1 µM under setting [2] and 0.0001 to 1 µM under setting [3].
On to `Cc1ccc(NC(=O)CN2C(=O)COCc3ccccc32)cc1-c1ccccn1` [Example 144, N-(4-methyl-3-pyridin-2-ylphenyl)-2-(2-oxo-5H-4,1-benzoxazepin-1-yl)acetamide], for which the IC50 under setting [1] fell in the range of 1 to 10 µM and the IC50 under setting [2] turned out to be 9.7 µM.
`Cc1ccc(NC(=O)N2[C@@H]3C[C@@H](C)C[C@H]2C3)cc1-c1nccc(C2CC2)n1` [Example 236, cis-N-[3-(4-cyclopropylpyrimidin-2-yl)-4-methylphenyl]-3-methyl-6-azabicyclo[3.1.1]heptane-6-carboxamide]: the IC50 reads like this: under setting [2], 0.7 µM; under setting [3], 0.0001 to 1 µM.
The matching figures for `Cc1ccc(NC(=O)[C@H]2C[C@H](C3CC3)C2)cc1-c1ccccn1` (single isomer, unassigned) [Example 121, trans-3-cyclopropyl-N-(4-methyl-3-pyridin-2-ylphenyl)cyclobutane-1-carboxamide]: 0.9 µM and 0.0001 to 1 µM.
In the case of `Cc1ccc(NC(=O)[C@@H]2C[C@@H]3C[C@@H]3N2c2ncccn2)cc1-c1ncc(F)cn1` [Example 268, (1S,3S,5S)-N-[3-(5-fluoropyrimidin-2-yl)-4-methylphenyl]-2-pyrimidin-2-yl-2-azabicyclo[3.1.0]hexane-3-carboxamide], the IC50 under setting [1] was greater than 10 µM and the IC50 under setting [2] is 33 µM.
As for `Cc1ccc(NC(=O)[C@@H]2C[C@H]3CC[C@@H]2N3c2ccccn2)cc1-c1ncc(F)cn1` (racemic) [Example 275, cis-N-(3-(5-fluoropyrimidin-2-yl)-4-methylphenyl)-7-(pyridin-2-yl)-7-azabicyclo[2.2.1]heptane-2-carboxamide], the IC50 under setting [1] was 1 to 10 µM and the IC50 under setting [2] came out at 4.9 µM.
With `Cc1ccc(NC(=O)C2C3CCC2C3)cc1-c1ccccn1` (centres unmarked) [Example 123, N-(4-methyl-3-pyridin-2-ylphenyl)bicyclo[2.1.1]hexane-5-carboxamide], the IC50 runs as follows: under setting [2], 0.3 µM; under setting [3], 0.0001 to 1 µM.
In turn, `Cc1ccc(NC(=O)C2CCC2C)cc1-c1ccccn1` (centres unmarked) [Example 112, 2-methyl-N-(4-methyl-3-pyridin-2-ylphenyl)cyclobutane-1-carboxamide] showed an IC50 under setting [1] of 1 to 10 µM and an IC50 under setting [2] of 1.7 µM.
In the case of `Cc1ccc(NC(=O)[C@@H]2[C@@H]3CC[C@H]2N(CC(F)(F)F)C3)cc1-c1ccccn1` (single isomer, unassigned) [Example 104, trans-N-(4-methyl-3-(pyridin-2-yl)phenyl)-2-(2,2,2-trifluoroethyl)-2-azabicyclo[2.2.1]heptane-7-carboxamide], the IC50 runs as follows: under setting [1], 1 to 10 µM; under setting [2], 2.6 µM.
The matching figures for `Cc1ccc(NC(=O)[C@H]2CC[C@@H](C3CC3)N2c2ccccn2)cc1-c1ncc(F)cn1` (racemic) [Example 273, cis-5-cyclopropyl-N-(3-(5-fluoropyrimidin-2-yl)-4-methylphenyl)-1-(pyridin-2-yl)pyrrolidine-2-carboxamide]: 1 to 10 µM and 1.9 µM.
Regarding `Cc1ccc(NC(=O)[C@H]2CC[C@H](C)N2c2ccccn2)cc1-c1ncc(F)cn1` [Example 281, (2R,5S)-N-[3-(5-fluoropyrimidin-2-yl)-4-methylphenyl]-5-methyl-1-pyridin-2-ylpyrrolidine-2-carboxamide], the IC50 runs as follows: under setting [1], 1 to 10 µM; under setting [2], 1.3 µM.

Values taken from patent publication US20250171462A1 (NICO Therapeutics, Inc., priority 2022, published 2025).
